From US20100179188A1, “NITROXIDE RADICAL AS TREATMENT FOR NEURODEGENERATION” (Office of Technology Transfer, NIH, priority 2007, published 2010) come the findings set out here.

One assay deals with IRP1. Put plainly: Western blot of IRP1 protein in brain-region lysates of IRP2−/− mice. Type of assay: in vivo. To be noted: cerebellum, brain-stem and forebrain of IRP2−/− mice, Tempo1 diet vs control diet. As to the method:
Diet: The mice were weaned 3-4 weeks after their birth. Immediately after weaning, mice were maintained on either a Tempo1-supplemented or control diet. In the Tempo1-supplemented diet, powdered Tempo1 was uniformly mixed with bacon-flavored mouse chow by a “cold press” technique (Bio-Serv, Frenchtown, N.J., USA) at a concentration of 10 mg/g of food. Bacon-flavored chow without Tempo1 was used as the control diet.
Tissue and lysate preparation: Animals were euthanized and tissues were frozen in liquid nitrogen immediately after harvesting, and stored at −80° C. under argon. Experiments were performed on tissues that were pulverized in liquid N2-cooled mortars in an anaerobic chamber, and then lysed in lysis buffer that was deaerated by cyclic freezethaw and air-removal with argon. […]
Lysates made from various brain regions of IRP2−/− mice that were maintained on a control diet or on a Tempo1-supplemented diet were analyzed for IRE binding activity of IRP1 and for TfR1, IRP1, and actin protein levels by gel-shift assay and Western blot. […] FIG. 3b is a quantification of the results as intensity of the bands relative to the control, represented here as 100%. Quantification was performed with the IQMac (IRP1 activity) or NIH Image (protein levels) program. Error bars represent the standard deviation calculated from the results of two different sets of animals.
On the technique in general: In western blotting, separated proteins are transferred to a membrane and probed.

For the next assay, the target named is T1, cytosolic aconitase (Mus musculus, UniProt P28271).
T1 construct: Embryonic fibroblasts of 13-day old embryos were isolated from wild type, IRP1−/− mice and IRP2−/− mice; endogenous in cells; host or cells: mouse embryonic fibroblasts (wild type and IRP2−/−)
T1 sequence (P28271 1-889): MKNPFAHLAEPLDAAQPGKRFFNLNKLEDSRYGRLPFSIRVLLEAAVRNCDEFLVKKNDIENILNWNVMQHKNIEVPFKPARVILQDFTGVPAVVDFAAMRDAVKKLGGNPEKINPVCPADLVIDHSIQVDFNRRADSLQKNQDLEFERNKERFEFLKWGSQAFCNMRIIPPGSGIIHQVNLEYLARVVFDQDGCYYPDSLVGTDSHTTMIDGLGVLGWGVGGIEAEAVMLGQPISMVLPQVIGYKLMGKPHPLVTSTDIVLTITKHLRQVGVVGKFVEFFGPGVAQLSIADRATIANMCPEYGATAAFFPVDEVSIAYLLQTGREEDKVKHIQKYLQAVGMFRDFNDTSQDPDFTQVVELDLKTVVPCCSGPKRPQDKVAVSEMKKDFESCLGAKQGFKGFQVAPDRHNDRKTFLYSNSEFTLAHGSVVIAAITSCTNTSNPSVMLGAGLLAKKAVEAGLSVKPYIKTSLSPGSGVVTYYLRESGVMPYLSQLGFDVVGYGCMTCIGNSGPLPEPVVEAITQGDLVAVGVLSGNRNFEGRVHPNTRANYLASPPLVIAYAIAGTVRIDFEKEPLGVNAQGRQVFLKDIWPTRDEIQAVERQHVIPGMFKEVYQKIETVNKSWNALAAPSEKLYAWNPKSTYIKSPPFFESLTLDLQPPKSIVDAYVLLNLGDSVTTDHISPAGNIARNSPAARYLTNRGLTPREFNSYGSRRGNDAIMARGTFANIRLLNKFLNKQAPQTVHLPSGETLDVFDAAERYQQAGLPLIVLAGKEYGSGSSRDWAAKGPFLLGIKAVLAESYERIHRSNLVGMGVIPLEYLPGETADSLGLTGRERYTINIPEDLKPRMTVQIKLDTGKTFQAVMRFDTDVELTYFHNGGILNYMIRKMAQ
Put plainly: In-gel aconitase assay in mouse embryonic fibroblast lysates, cytosolic aconitase. In kind it is cell-based. How it is done:
Cells: Embryonic fibroblasts of 13-day old embryos were isolated from wild type, IRP1−/− mice and IRP2−/− mice as described in LaVaute et al. supra. Myc-tagged HEK 293 Tet-on cell line, in which IRP2 expression was inducible, was prepared and cultured as described Bourdon et al., Blood Cells Mol Dis, 31, 247-255 (2003). Erythroblasts were harvested from bone marrow and purified as described in Cooperman et al., Blood, 106, 1084-1091 (2005).
Aconitase assay: Aconitase activity gels for human lysates were performed as described in Tong et al., infra, and aconitase activity gels for mouse lysate were performed with the following modifications. The gel was composed of a separating gel containing 6% acrylamide, 132 mM Tris base, 66 mM borate, 3.6 mM citrate, and a stacking gel containing 4% acrylamide, 66 mM Tris base, 33 mM borate, 3.6 mM citrate. The running buffer contains 25 mM Tris pH 8.3, 96 mM glycine, and 3.6 mM citrate. Electrophoresis were carried out at 170 V at 4° C. Spectral aconitase activity was measured by following the method of Fillebeen et al., infra, using cis-aconitate as the substrate.
To confirm that nitroxide radicals activate IRP1 binding by disassembly of the iron-sulfur cluster, we performed in-gel aconitase assays to determine whether Tempo1 decreased the activity of cytosolic aconitase. […] The band that represented the cytosolic aconitase was readily identified by its absence in lysates from IRP1−/− cells. […]
To determine whether the effect of Tempo1 on IRP1 activity was kinetically consistent with oxidative disassembly of the iron sulfur cluster, the effect of Tempo1 on aconitase activity was compared to that of the iron chelator, deferiprone (DFO), which activates IRE-binding activity of IRP1 by limiting de novo synthesis and repair of the iron sulfur cluster in IRP1. […] Recovery of aconitase activity was assessed in wild type and IRP2−/− cells.

Take `CC1(C)CC(O)CC(C)(C)N1[O]` [Tempo1]: in the assay with IRP1, the IRP1 protein levels entry is “did not significantly change”. The “activity of cytosolic aconitase” value at cytosolic aconitase (lysates from WT and IRP2−/− embryonic fibroblasts) is listed as “diminished”. In addition, at cytosolic aconitase (mouse embryonic fibroblasts, 16 hours treatment, then fresh unsupplemented media), the “time to reversal of the loss of cytosolic aconitase activity after removal” value is at most 2 h.
